Laboratory results from patent US10959432B2, “Microbiocidal oxadiazole derivatives” (Syngenta Participations AG, priority 2016, dated 2021).

How the values were obtained:
[1] = tested on: Puccinia recondita f. sp. tritici; assay: Fungicidal activity against Puccinia recondita f. sp. tritici / wheat / leaf disc preventative (brown rust); assay type: in vivo; conditions: foliar, 200 ppm in the applied formulation, wheat leaf segments cv. Kanzler, preventative (inoculated 1 day after application), assessed 7 to 9 days after application, read-out: disease control compared to untreated control leaf disks
In short: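 Wheat cv. Kanzler leaf segments on agar sprayed with formulated compound diluted in water, inoculated with P. recondita spores 1 day later. Incubated at 19C, 75% rh, 12 h light/12 h dark; scored 7 to 9 days after application as percent disease control versus untreated segments. Test rate 200 ppm.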

Uromyces viciae-fabae = assay: Fungicidal activity against Uromyces viciae-fabae / field bean / leaf disc preventative (faba-bean rust); assay type: in vivo; conditions: foliar, 288 h, 100 ppm in the applied formulation, field bean leaf discs, preventative (inoculated two hours after application), assessed 12 days after application, read-out: disease control compared to untreated control leaf discs
Protocol: Leaf disks or leaf segments of various plant species are cut from plants grown in a greenhouse. The cut leaf disks or segments are placed in multiwell plates (24-well format) onto water agar. The leaf disks are sprayed with a test solution before (preventative) or after (curative) inoculation. Compounds to be tested are prepared as DMSO solutions (max. 10 mg/ml) which are diluted to the appropriate concentration with 0.025% Tween20 just before spraying. The inoculated leaf disks or segments are incubated under defined conditions (temperature, relative humidity, light, etc.) according to the respective test system. A single evaluation of disease level is carried out 3 to 14 days after inoculation, depending on the pathosystem. Percent disease control relative to the untreated check leaf disks or segments is then calculated. General Examples of Liquid Culture Tests in Well Plates:
Example 5: Fungicidal Activity Against Uromyces viciae-fabae/Field Bean/Leaf Disc Preventative (Faba-Bean Rust)
Field bean leaf discs are placed on water agar in multiwell plates (96-well format) and 10 μl of the formulated test compound diluted in acetone and a spreader pipetted onto the leaf disc. Two hours after application leaf discs are inoculated by spraying a spore suspension on the lower leaf surface. The leaf discs are incubated in a climate cabinet at 22° C. with 18 hour day and 70% relative humidity. The activity of a compound is assessed as percent disease control compared to untreated when an appropriate level of disease damage appears in untreated check leaf disks (12 days after application).
The following compounds at 100 ppm in the applied formulation give at least 80% disease control in this test when compared to untreated control leaf discs under the same conditions, which show extensive disease development.

[2] = tested on: Puccinia recondita f. sp. tritici; assay: Fungicidal activity against Puccinia recondita f. sp. tritici / wheat / leaf disc curative (brown rust); assay type: in vivo; conditions: foliar, 200 ppm in the applied formulation, wheat leaf segments cv. Kanzler, curative (applied 1 day after inoculation), assessed 6 to 8 days after application, read-out: disease control compared to untreated control leaf disks
In short: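 Wheat cv. Kanzler leaf segments on agar, spore-inoculated, held dark at 19° C./75% RH; formulated compound in water sprayed 1 day post-inoculation (curative). Incubated 19° C., 75% RH, 12 h light/12 h dark; percent disease control vs untreated scored 6 to 8 days after application.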

Phakopsora pachyrhizi = assay: Fungicidal activity against Phakopsora pachyrhizi / soybean / leaf disc preventative (Asian soybean rust); assay type: in vivo; conditions: foliar, 200 ppm in the applied formulation, soybean leaf disks, preventative (inoculated one day after application), assessed 12 to 14 days after application, read-out: disease control compared to untreated control leaf disks
In short: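 Soybean leaf discs on water agar sprayed with formulated compound diluted in water; spore suspension sprayed on lower leaf surface one day later. Incubated 24-36 h dark at 20° C, 75% rh, then 20° C, 12 h light/day, 75% rh. Percent disease control versus untreated scored 12 to 14 days after application.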

[3] = tested on: Glomerella laqenarium (Colletotrichum lagenarium); assay: Fungicidal activity against Glomerella lagenarium (Colletotrichum lagenarium) liquid culture / cucumber / preventative (anthracnose); assay type: cell-based; conditions: Colletotrichum orbiculare; 20 ppm in the applied formulation; liquid culture in PDB, 24° C., 3 to 4 days after application; read-out: disease control compared to untreated control (inhibition of growth measured photometrically)
In short: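 Cryostored conidia mixed into potato dextrose broth and added to test compound (from DMSO solution) in microtiter plates. Incubated at 24 °C; growth inhibition read photometrically 3 to 4 days after application, as percent activity versus untreated check.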

CN(C(=O)c1ccc(-c2noc(C(F)(F)F)n2)cc1)C1CCOC1 (stereo not drawn) [Compound 1a.7, N-methyl-N-tetrahydrofuran-3-yl-4-[5-(trifluoromethyl)-1,2,4-oxadiazol-3-yl]benzamide]
≥ 80%: pest or weed control at 200 ppm [1] | pest or weed control at 100 ppm (Uromyces viciae-fabae) | pest or weed control at 200 ppm [2]

COC(=O)C1(NC(=O)c2ccc(-c3noc(C(F)(F)F)n3)cc2)CCCN(OC)C1 (stereo not drawn) [Compound 1a.8, methyl 1-methoxy-3-[[4-[5-(trifluoromethyl)-1,2,4-oxadiazol-3-yl]benzoyl]amino]piperidine-3-carboxylate]
≥ 80%: pest or weed control at 100 ppm (Uromyces viciae-fabae) | pest or weed control at 200 ppm [2]

CN(C(=O)c1ccc(-c2noc(C(F)(F)F)n2)cc1)C1CCSC1 (stereo not drawn) [Compound 1a.9, N-methyl-N-tetra-hydrothiophen-3-yl-4-[5-(trifluoromethyl)-1,2,4-oxadiazol-3-yl]benzamide]
≥ 80%: pest or weed control at 100 ppm (Uromyces viciae-fabae) | pest or weed control at 200 ppm [2]

CN(CC1OCCO1)C(=O)c1ccc(-c2noc(C(F)(F)F)n2)cc1F [Compound 1b.2, N-(1,3-dioxolan-2-ylmethyl)-2-fluoro-N-methyl-4-[5-(trifluoromethyl)-1,2,4-oxadiazol-3-yl]benzamide]
≥ 80%: pest or weed control at 200 ppm [1] | pest or weed control at 100 ppm (Uromyces viciae-fabae) | pest or weed control at 200 ppm [2] | pest or weed control at 200 ppm (Phakopsora pachyrhizi)

O=C(NC1CCN(Cc2ccccc2)CC1)c1ccc(-c2noc(C(F)(F)F)n2)cc1F [Compound 1b.3, N-(1-benzyl-4-piperidyl)-2-fluoro-4-[5-(trifuoromethyl)-1,2,4-oxadiazol-3-yl]benzamide]
≥ 80%: pest or weed control at 200 ppm [1] | pest or weed control at 100 ppm (Uromyces viciae-fabae) | pest or weed control at 200 ppm (Phakopsora pachyrhizi)

CN(C(=O)c1ccc(-c2noc(C(F)(F)F)n2)cc1F)C1CCOC1 (stereo not drawn) [Compound 1b.7, 2-fluoro-N-methyl-N-tetrahydrofuran-3-yl-4-[5-(trifluoromethyl)-1,2,4-oxadiazol-3-yl]benzamide]
≥ 80%: pest or weed control at 100 ppm (Uromyces viciae-fabae) | pest or weed control at 200 ppm [2]

CN(CC1CCCCO1)C(=O)c1ccc(-c2noc(C(F)(F)F)n2)cc1F (stereo not drawn) [Compound 1b.10, 2-fluoro-N-methyl-N-(tetrahydropyran-2-ylmethyl)-4-[5-(trifluoromethyl)-1,2,4-oxadiazol-3-yl]benzamide]
≥ 80%: pest or weed control at 100 ppm (Uromyces viciae-fabae) | pest or weed control at 200 ppm [2]

CC(NC(=O)c1ccc(-c2noc(C(F)(F)F)n2)cc1F)C1(C)OCCO1 (stereo not drawn) [Compound 1b.12, 2-fluoro-N-[1-(2-methyl-1,3-dioxolan-2-yl)ethyl]-4-[5-(trifluoromethyl)-1,2,4-oxadiazol-3-yl]benzamide]
≥ 80%: pest or weed control at 100 ppm (Uromyces viciae-fabae) | pest or weed control at 200 ppm [2]

O=C(NCC1COCCO1)c1ccc(-c2noc(C(F)(F)F)n2)cc1Cl (stereo not drawn) [Compound 1b.13, 2-chloro-N-(1,4-dioxan-2-ylmethyl)-4-[5-(trifluoromethyl)-1,2,4-oxadiazol-3-yl]benzamide]
≥ 80%: pest or weed control at 200 ppm [1] | pest or weed control at 100 ppm (Uromyces viciae-fabae) | pest or weed control at 200 ppm [2]

O=C(NCC1CCOC1)c1ccc(-c2noc(C(F)(F)F)n2)cc1Cl (stereo not drawn) [Compound 1b.14, 2-chloro-N-(tetrahydrofuran-3-ylmethyl)-4-[5-(trifluoromethyl)-1,2,4-oxadiazol-3-yl]benzamide]
≥ 80%: pest or weed control at 200 ppm [1] | pest or weed control at 100 ppm (Uromyces viciae-fabae) | inhibition at 20 ppm [3] | pest or weed control at 200 ppm (Phakopsora pachyrhizi)

CC1CCC(NC(=O)c2ccc(-c3noc(C(F)(F)F)n3)cc2)CC1 (stereo not drawn) [Compound 2a.6, N-(4-methylcyclohexyl)-4-[5-(trifluoromethyl)-1,2,4-oxadiazol-3-yl]benzamide]
≥ 80%: pest or weed control at 200 ppm [1] | pest or weed control at 100 ppm (Uromyces viciae-fabae) | pest or weed control at 200 ppm (Phakopsora pachyrhizi)

O=C(NC1(Cc2ccc(Cl)cc2)CC1)c1ccc(-c2noc(C(F)(F)F)n2)cc1 [Compound 2a.7, N-[1-[(4-chlorophenyl)methyl]cyclopropyl]-4-[5-(trifluoromethyl)-1,2,4-oxadiazol-3-yl]benzamide]
≥ 80%: pest or weed control at 200 ppm [1] | pest or weed control at 100 ppm (Uromyces viciae-fabae) | pest or weed control at 200 ppm (Phakopsora pachyrhizi)

C#CC1(NC(=O)c2ccc(-c3noc(C(F)(F)F)n3)cc2F)CCCCC1 [Compound 2b.2, N-(1-ethynylcyclohexyl)-2-fluoro-4-[5-(trifluoromethyl)-1,2,4-oxadiazol-3-yl]benzamide]
≥ 80%: pest or weed control at 100 ppm (Uromyces viciae-fabae) | inhibition at 20 ppm [3] | pest or weed control at 200 ppm (Phakopsora pachyrhizi)

O=C(NC1(C2CC2)CC1)c1ccc(-c2noc(C(F)(F)F)n2)cc1F [Compound 2b.6, N-(1-cyclopropylcyclo-propyl)-2-fluoro-4-[5-(trifluoromethyl)-1,2,4-oxadiazol-3-yl]benzamide]
≥ 80%: pest or weed control at 100 ppm (Uromyces viciae-fabae) | inhibition at 20 ppm [3] | pest or weed control at 200 ppm (Phakopsora pachyrhizi)

CC(NC(=O)c1ccc(-c2noc(C(F)(F)F)n2)cc1Cl)C1CC1 (stereo not drawn) [Compound 2b.15, 2-chloro-N-(1-cyclopropylethyl)-4-[5-(trifluoromethyl)-1,2,4-oxadiazol-3-yl]benzamide]
≥ 80%: pest or weed control at 200 ppm [1] | pest or weed control at 100 ppm (Uromyces viciae-fabae) | pest or weed control at 200 ppm (Phakopsora pachyrhizi)

COC(=O)CNC(=O)c1ccc(-c2noc(C(F)(F)F)n2)cc1 [Compound 3a.4, methyl 2-[[4-[5-(trifluoromethyl)-1,2,4-oxadiazol-3-yl]benzoyl]amino]acetate]
≥ 80%: pest or weed control at 200 ppm [1] | pest or weed control at 100 ppm (Uromyces viciae-fabae) | inhibition at 20 ppm [3] | pest or weed control at 200 ppm (Phakopsora pachyrhizi)

O=C(NCCCCc1ccccc1)c1ccc(-c2noc(C(F)(F)F)n2)cc1F [Compound 4b.10, 2-fluoro-N-(4-phenylbutyl)-4-[5-(trifluoromethyl)-1,2,4-oxadiazol-3-yl]benzamide]
≥ 80%: pest or weed control at 100 ppm (Uromyces viciae-fabae) | inhibition at 20 ppm [3] | pest or weed control at 200 ppm (Phakopsora pachyrhizi)

CCOc1ccc(CN(C(=O)c2ccc(-c3noc(C(F)(F)F)n3)cc2F)C(C)C)cc1OCC [Compound 4b.11, N-[(3,4-diethoxyphenyl)methyl]-2-fluoro-N-isopropyl-4-[5-(trifluoromethyl)-1,2,4-oxadiazol-3-yl]benzamide]
≥ 80%: pest or weed control at 200 ppm [1] | pest or weed control at 100 ppm (Uromyces viciae-fabae) | inhibition at 20 ppm [3]

O=C(NCCc1cccs1)c1ccc(-c2noc(C(F)(F)F)n2)cc1 [Compound 5a.7, N-[2-(2-thienyl)ethyl]-4-[5-(trifluoromethyl)-1,2,4-oxadiazol-3-yl]benzamide]
≥ 80%: pest or weed control at 200 ppm [1] | pest or weed control at 100 ppm (Uromyces viciae-fabae) | inhibition at 20 ppm [3] | pest or weed control at 200 ppm (Phakopsora pachyrhizi)

O=C(Nc1cn[nH]c1)c1ccc(-c2noc(C(F)(F)F)n2)cc1F [Compound 5b.7, 2-fluoro-N-(1H-pyrazol-4-yl)-4-[5-(trifluoromethyl)-1,2,4-oxadiazol-3-yl]benzamide]
≥ 80%: pest or weed control at 200 ppm [1] | pest or weed control at 100 ppm (Uromyces viciae-fabae) | inhibition at 20 ppm [3] | pest or weed control at 200 ppm (Phakopsora pachyrhizi)

O=C(Nc1nc(Br)n[nH]1)c1ccc(-c2noc(C(F)(F)F)n2)cc1F [Compound 5b.10, N-(3-bromo-1H-1,2,4-triazol-5-yl)-2-fluoro-4-[5-(trifluoromethyl)-1,2,4-oxadiazol-3-yl]benzamide]
≥ 80%: pest or weed control at 200 ppm [1] | pest or weed control at 100 ppm (Uromyces viciae-fabae) | inhibition at 20 ppm [3]

O=C(NCCc1cccs1)c1ccc(-c2noc(C(F)(F)F)n2)cc1Cl [Compound 5b.18, 2-chloro-N-[2-(2-thienyl)ethyl]-4-[5-(trifluoromethyl)-1,2,4-oxadiazol-3-yl]benzamide]
≥ 80%: pest or weed control at 200 ppm [1] | pest or weed control at 100 ppm (Uromyces viciae-fabae) | inhibition at 20 ppm [3]
